Experimental data as given in US11034725B2, “Compositions and methods for treating cardiovascular disease” (Genentech, Inc., priority 2016, dated 2021).
Read-outs that look alike come from different tables or passages of the source. Bridge positions count the residues as written; N and C are the ends. Square brackets hold non-standard residues; d marks the D form. Peptide text beside a SMILES is read from it. * marks the point of attachment. hArg = N=C(N)NCCCC[C@H](N)C(=O)O; Pentanoyl = CCCCC(=O)*; Ahp = NCCCCCCC(=O)O

Key:
PCSK9Δhelix = target: T1, PCSK9Δhelix (Homo sapiens, UniProt Q8NBP7); assay: PCSK9Δhelix/Ab20 TR-FRET binding assay; conditions: for IC50: TR-FRET, read-out: PCSK9Δhelix/Ab20 IC50
T1 construct: Human PCSK9 construct M1-Q692 with an engineered TEV site (residue deletion Y166, R167); made in house; host or cells: CHO

PCSK9 = PCSK9 (Homo sapiens, UniProt Q8NBP7); assay: PCSK9/EGF(A) TR-FRET binding assay; conditions: TR-FRET, read-out: PCSK9/EGF(A) IC50
Experimental: The former was based on a TF-FRET assay to measure the association of the EGF(A) domain of the LDLR to PCSK9 (“PCSK9/EGF(A) binding assay”) whilst the latter was based on a TR-FRET assay to measure binding of Ab20 to PCSK9Δhelix (“PCSK9Δhelix/Ab20 binding assay”).
The ability of compounds to inhibit binding to PCSK9 was evaluated with a panel of time-resolved fluorescence resonance energy transfer (TR-FRET) binding assays. […] The PCSK9Δhelix/Ab20 binding assay evaluated the ability of compounds to compete with Ab20 for binding to the N-terminal groove region in a His-tagged, PCSK9Δhelix construct. […] Signal generation in the PCSK9 binding assays was dependent upon the binding interaction to bring into close proximity the His-tag on the PCSK9 and the Fc-tag on the ligand. Anti-His-APC was bound to the His-tag, and anti-Fc-europium was bound to the Fc-tag. When these two antibodies were in close proximity and were irradiated with light at 340 nm, the europium was excited and emitted energy at 615 nm. This energy was taken up by the APC and was emitted as light at 665 nm. Compounds that competed with the ligand reduced the energy transfer and thus the emission at 665 nm. In the His-EGFA-Fc molecule in the counterscreen, the two tags were always in close proximity, thus any reduction in emission at 665 nm was due to interference with the detection system.
Compounds were solubilized and dilutions were prepared in DMSO. […] The plate was centrifuged to mix the well contents and allowed to incubate for 30 min. […] The TR-FRET signal was read on a ViewLux reader (PerkinElmer) with excitation at 340 nm and emission at 615 and 665 nm with a 50-μs time delay between excitation and measurement of emission. The TR-FRET ratio was calculated as the fluorescence emission at 665 nm divided by the fluorescence emission at 615 nm. The normalized TR-FRET ratios were plotted as a function of the compound concentrations, and the IC50 values were determined using a 4-parameter logistic regression.
In black 1536-well assay plates (MaKO, Aurora® Microplates, Whitefish, Mont.), 40 nL of peptide in DMSO were preincubated with 2 μL His-tagged PCSK9 plus anti-His-allophycocyanin in assay buffer (50 mM Tris-HCl, pH 7.5, 150 mM NaCl, 2 mM CaCl2, 0.01% Tween®-20, 0.1% bovine gamma globulins, and protease inhibitor cocktail) for 30 min. Then 2 μL of Fc-tagged ligand and anti-Fc-europium in assay buffer were added and allowed to incubate for 2 h.

His-EGF(A)-Fc = His-EGF(A)-Fc TR-FRET counterscreen
[1] = TR-FRET counterscreen, Table 8E, additional compounds
[2] = Table 8D, disulfide-cyclized extension peptides
[3] = TR-FRET counterscreen, Table 8D, * = some inhibition at highest concentrations, not sufficient to fit an IC50

T1 sequence (Q8NBP7 with tags, fused parts or gaps limits assumed): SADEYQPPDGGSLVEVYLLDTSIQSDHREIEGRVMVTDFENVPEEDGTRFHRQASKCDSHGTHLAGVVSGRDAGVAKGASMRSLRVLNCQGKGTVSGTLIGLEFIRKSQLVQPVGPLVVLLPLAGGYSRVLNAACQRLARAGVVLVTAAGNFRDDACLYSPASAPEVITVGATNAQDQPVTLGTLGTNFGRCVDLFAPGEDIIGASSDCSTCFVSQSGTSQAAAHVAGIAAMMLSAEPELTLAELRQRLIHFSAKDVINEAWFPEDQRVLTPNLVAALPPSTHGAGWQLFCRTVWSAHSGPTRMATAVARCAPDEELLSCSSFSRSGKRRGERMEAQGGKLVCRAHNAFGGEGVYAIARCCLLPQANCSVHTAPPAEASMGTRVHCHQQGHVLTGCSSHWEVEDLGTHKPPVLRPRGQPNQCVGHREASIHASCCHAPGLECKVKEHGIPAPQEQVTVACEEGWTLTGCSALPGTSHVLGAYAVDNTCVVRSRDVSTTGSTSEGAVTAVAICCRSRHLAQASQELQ
T1 sequence (Q8NBP7 31-152 partner limits assumed): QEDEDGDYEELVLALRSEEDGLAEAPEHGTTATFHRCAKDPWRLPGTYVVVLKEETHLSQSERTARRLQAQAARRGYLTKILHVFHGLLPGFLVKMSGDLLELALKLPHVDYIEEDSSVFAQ
PCSK9, sequence (Q8NBP7 153-692): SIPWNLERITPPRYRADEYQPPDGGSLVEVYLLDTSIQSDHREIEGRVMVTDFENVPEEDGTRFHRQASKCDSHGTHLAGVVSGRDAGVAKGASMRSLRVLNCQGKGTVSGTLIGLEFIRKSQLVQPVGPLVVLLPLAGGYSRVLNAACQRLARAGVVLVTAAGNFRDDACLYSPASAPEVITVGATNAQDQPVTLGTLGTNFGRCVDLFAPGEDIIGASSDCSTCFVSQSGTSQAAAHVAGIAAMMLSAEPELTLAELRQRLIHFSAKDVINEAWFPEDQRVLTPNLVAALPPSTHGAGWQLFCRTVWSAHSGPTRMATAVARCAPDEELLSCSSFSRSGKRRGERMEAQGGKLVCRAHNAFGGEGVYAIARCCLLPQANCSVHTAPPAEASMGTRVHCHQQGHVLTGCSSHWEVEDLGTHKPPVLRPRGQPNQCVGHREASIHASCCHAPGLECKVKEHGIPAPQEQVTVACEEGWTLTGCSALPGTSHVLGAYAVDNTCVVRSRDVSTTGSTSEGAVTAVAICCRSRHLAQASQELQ
PCSK9, sequence (Q8NBP7 31-152 partner limits assumed): as the sequence (Q8NBP7 31-152 partner limits assumed) above

Compound	IC50 (PCSK9Δhelix; Example 7) [µM]	IC50 (His-EGF(A)-Fc; counterscreen, Example 7) [µM]	IC50 (PCSK9; Table 8E, additional compounds) [µM]	IC50 (His-EGF(A)-Fc; [1]) [µM]	also measured
Ac-DAMPWNLVRIGLLR-NH2 [Compound 44]	6.9	> 50	–	–	IC50 (PCSK9; Example 7): > 50 µM
Ac-DLMPWNLKRIGLLR-NH2 [Compound 158]	–	–	≥ 50	≥ 50	IC50 (PCSK9Δhelix; Table 8E, additional compounds): 12 µM
CC[C@H](C)[C@@H]1NC(=O)[C@H](CCCNC(=N)N)NC(=O)[C@H](CCC(N)=O)NC(=O)[C@H](CC(C)C)NC(=O)[C@H](CC(N)=O)NC(=O)[C@H](Cc2c[nH]c3ccccc23)NC(=O)[C@@H]2CCCN2C(=O)[C@H](C)NC(=O)[C@H](CCCNC(=N)N)NC(=O)[C@@H](NC(C)=O)CSSC[C@@H](C(N)=O)NC(=O)[C@@H]2CCCN2C(=O)[C@H](CC(C)C)NC(=O)CNC1=O [Compound 78] (Ac-CRAPWNLQRIGLPC-NH2; disulfide 1-14)	–	–	–	–	IC50 (PCSK9Δhelix; [2]): 5.56 µM; IC50 (PCSK9; [2]): > 50 µM; IC50 (His-EGF(A)-Fc; [3]): > 50 µM
Ac-DLMPWNLARIGLLR-NH2 [Compound 60]	19.2	> 50	–	–	IC50 (PCSK9; Example 7): > 50 µM
Ac-DSYPGWNLVRIGLLR-NH2 [Compound 155]	–	–	11	> 50	–
Ac-DLMPWNLVRIGLLA-NH2 [Compound 54]	15.4	> 50	–	–	IC50 (PCSK9; Example 7): > 50 µM
CC[C@H](C)[C@@H]1NC(=O)[C@H](CCCNC(=N)N)NC(=O)[C@H](CCC(N)=O)NC(=O)[C@H](CC(C)C)NC(=O)[C@H](CC(N)=O)NC(=O)[C@H](Cc2c[nH]c3ccccc23)NC(=O)[C@@H]2CCCN2C(=O)[C@H](CC(C)C)NC(=O)[C@H](CCCNC(=N)N)NC(=O)[C@@H](NC(C)=O)CSSC[C@@H](C(N)=O)NC(=O)CCCCCCNC1=O [Compound 121] (Ac-CRLPWNLQRI[Ahp]C-NH2; disulfide 1-12)	–	–	–	–	inhibition in the PCSK9Δhelix/Ab20 binding assay (PCSK9Δhelix): weak but detectable inhibition; IC50 (PCSK9Δhelix; [2]): 40.3 µM; IC50 (PCSK9; [2]): > 50 µM; IC50 (His-EGF(A)-Fc; [3]): > 50 µM
CCCCC(=O)N[C@@H](Cc1c[nH]c2ccccc12)C(=O)N[C@@H](CC(N)=O)C(=O)N[C@@H](CC(C)C)C(=O)N[C@H](C(=O)N[C@@H](CCCNC(=N)N)C(=O)N[C@H](C(=O)NCC(=O)N[C@@H](CC(C)C)C(=O)N[C@@H](CCC(=O)O)C(=O)N[C@@H](CCCNC(=N)N)C(N)=O)[C@@H](C)CC)C(C)C [Compound 177] (Pentanoyl-WNLVRIGLER-NH2)	–	–	≥ 50	≥ 50	–
CC[C@H](C)[C@@H]1NC(=O)[C@H](CCCNC(=N)N)NC(=O)[C@H](CCC(N)=O)NC(=O)[C@H](CC(C)C)NC(=O)[C@H](CC(N)=O)NC(=O)[C@H](Cc2c[nH]c3ccccc23)NC(=O)[C@@H]2CCCN2C(=O)[C@H](CC(C)C)NC(=O)[C@H](CCCNC(=N)N)NC(=O)[C@@H](NC(C)=O)CSSC[C@@H](C(N)=O)NC(=O)CNC(=O)[C@H](CC(C)C)NC(=O)CNC1=O [Compound 80] (Ac-CRLPWNLQRIGLGC-NH2; disulfide 1-14)	–	–	–	–	IC50 (PCSK9; [2]): > 50 µM; IC50 (His-EGF(A)-Fc; [3]): > 50 µM
Ac-MDSFPGWNLVRIGLLR-NH2 [Compound 153]	–	–	12	> 50	–
CC[C@H](C)[C@H](NC(=O)[C@H](CCCNC(=N)N)NC(=O)[C@H](CCCCN)NC(=O)[C@H](CC(C)C)NC(=O)[C@H](CC(N)=O)NC(=O)[C@H](Cc1c[nH]c2ccccc12)NC(=O)[C@H](C)NC(=O)CCCCCNC(=O)[C@@H](NC(=O)[C@H](Cc1c[nH]c2ccccc12)NC(=O)[C@H](CC(=O)O)NC(=O)[C@H](CC(C)C)NC(=O)[C@H](Cc1ccc(O)cc1)NC(=O)[C@H](CCC(=O)O)NC(=O)[C@H](CCC(=O)O)NC(=O)[C@H](Cc1c[nH]c2ccccc12)NC(=O)[C@H](CO)NC(=O)[C@@H](NC(=O)[C@H](Cc1ccccc1)NC(=O)[C@@H](NC(=O)[C@@H](NC(C)=O)[C@@H](C)O)C(C)C)[C@@H](C)O)C(C)C)C(=O)NCC(N)=O [Compound 92]	0.013	> 50	–	–	–
CC[C@H](C)[C@H](NC(=O)[C@H](CCCCNC(=N)N)NC(=O)[C@H](CCCCN)NC(=O)[C@H](CC(C)C)NC(=O)[C@H](CC(N)=O)NC(=O)[C@H](Cc1c[nH]c2ccccc12)NC(=O)CNC(=O)[C@@H]1CCCN1C(=O)[C@H](Cc1ccccc1)NC(=O)[C@H](CO)NC(=O)[C@H](CCC(=O)O)NC(=O)[C@H](CCSC)NC(C)=O)C(=O)NCC(=O)N[C@@H](CC(C)C)C(=O)N[C@@H](CC(C)C)C(=O)N[C@@H](CCCNC(=N)N)C(N)=O [Compound 233] (Ac-MESFPGWNLK[hArg]IGLLR-NH2)	–	–	3.1	≥ 50	–
CC[C@H](C)[C@@H]1NC(=O)[C@H](CCCNC(=N)N)NC(=O)[C@H](CCC(N)=O)NC(=O)[C@H](CC(C)C)NC(=O)[C@H](CC(N)=O)NC(=O)[C@H](Cc2c[nH]c3ccccc23)NC(=O)[C@@H]2CCCN2C(=O)[C@H](CC(C)C)NC(=O)[C@H](CCCNC(=N)N)NC(=O)[C@@H](NC(=O)CNC(=O)CNC(=O)[C@H](CO)NC(=O)CNC(=O)[C@@H](NC(=O)[C@H](Cc2c[nH]c3ccccc23)NC(=O)[C@H](CC(=O)O)NC(=O)[C@H](CC(C)C)NC(=O)[C@H](Cc2ccc(O)cc2)NC(=O)[C@H](CCC(=O)O)NC(=O)[C@H](CCC(=O)O)NC(=O)[C@H](Cc2c[nH]c3ccccc23)NC(=O)[C@H](CO)NC(=O)[C@@H](NC(=O)[C@H](Cc2ccccc2)NC(=O)[C@@H](NC(=O)[C@@H](NC(C)=O)[C@@H](C)O)C(C)C)[C@@H](C)O)C(C)C)CSSC[C@@H](C(N)=O)NC(=O)[C@@H]2CCCN2C(=O)[C@H](CC(C)C)NC(=O)CNC1=O [Compound 25] (Ac-TVFTSWEEYLDWVGSGGCRLPWNLQRIGLPC-NH2; disulfide 18-31)	0.083	> 50	–	–	inhibition in the PCSK9Δhelix/Ab20 binding assay (PCSK9Δhelix): potent inhibitors
CC[C@H](C)[C@@H]1NC(=O)[C@H](CCCNC(=N)N)NC(=O)[C@H](CCC(N)=O)NC(=O)[C@H](CC(C)C)NC(=O)[C@H](CC(N)=O)NC(=O)[C@H](Cc2c[nH]c3ccccc23)NC(=O)[C@@H]2CCCN2C(=O)[C@H](CC(C)C)NC(=O)[C@H](CCCNC(=N)N)NC(=O)[C@H](NC(C)=O)CSSC[C@@H](C(N)=O)NC(=O)[C@@H]2CCCN2C(=O)[C@H](CC(C)C)NC(=O)CNC1=O [Compound 110] (Ac-[dC]RLPWNLQRIGLPC-NH2; disulfide 1-14)	–	–	–	–	IC50 (PCSK9; [2]): > 50 µM; IC50 (His-EGF(A)-Fc; [3]): > 50 µM
Ac-SFAFPGWNLVRIGLLR-NH2 [Compound 154]	–	–	11	> 50	–
CC[C@H](C)[C@@H]1NC(=O)[C@H](CCCNC(=N)N)NC(=O)CNC(=O)[C@H](CC(C)C)NC(=O)[C@H](CC(N)=O)NC(=O)[C@H](Cc2c[nH]c3ccccc23)NC(=O)[C@@H](NC(=O)CNC(=O)[C@H](CO)NC(=O)CNC(=O)[C@@H](NC(=O)[C@H](Cc2c[nH]c3ccccc23)NC(=O)[C@H](CC(=O)O)NC(=O)[C@H](CC(C)C)NC(=O)[C@H](Cc2ccc(O)cc2)NC(=O)[C@H](CCC(=O)O)NC(=O)[C@H](CCC(=O)O)NC(=O)[C@H](Cc2c[nH]c3ccccc23)NC(=O)[C@H](CO)NC(=O)[C@@H](NC(=O)[C@H](Cc2ccccc2)NC(=O)[C@@H](NC(=O)[C@@H](NC(C)=O)[C@@H](C)O)C(C)C)[C@@H](C)O)C(C)C)CSSC[C@@H](C(N)=O)NC(=O)CNC(=O)[C@H](CCC(N)=O)NC(=O)[C@H](CO)NC(=O)CNC1=O [Compound 11] (Ac-TVFTSWEEYLDWVGSGCWNLGRIGSQGC-NH2; disulfide 17-28)	–	> 50	–	–	IC50 (PCSK9; Example 7): 0.34 µM
Ac-ESYPGWNLVRIGLLR-NH2 [Compound 156]	–	–	11	> 50	–
CC[C@H](C)[C@H](NC(=O)[C@H](CCCNC(=N)N)NC(=O)[C@H](CCCCN)NC(=O)[C@H](CC(C)C)NC(=O)[C@H](CC(N)=O)NC(=O)[C@H](Cc1c[nH]c2ccccc12)NC(=O)[C@H](C)NC(=O)CCCCCNC(=O)[C@@H](NC(=O)[C@H](Cc1c[nH]c2ccccc12)NC(=O)[C@H](CC(=O)O)NC(=O)[C@H](CC(C)C)NC(=O)[C@H](Cc1ccc(O)cc1)NC(=O)[C@H](CCC(=O)O)NC(=O)[C@H](CCC(=O)O)NC(=O)[C@H](Cc1c[nH]c2ccccc12)NC(=O)[C@H](CO)NC(=O)[C@@H](NC(=O)[C@H](Cc1ccccc1)NC(=O)[C@@H](NC(=O)[C@@H](NC(C)=O)[C@@H](C)O)C(C)C)[C@@H](C)O)C(C)C)C(=O)NCC(=O)N[C@@H](CO)C(N)=O [Compound 91]	0.01	> 50	–	–	–
CC(=O)N[C@H](C(=O)N[C@H](C(=O)N[C@@H](Cc1ccccc1)C(=O)N[C@H](C(=O)N[C@@H](CO)C(=O)N[C@@H](Cc1c[nH]c2ccccc12)C(=O)N[C@@H](CCC(=O)O)C(=O)N[C@@H](CCC(=O)O)C(=O)N[C@@H](Cc1ccc(O)cc1)C(=O)N[C@@H](CC(C)C)C(=O)N[C@@H](CC(=O)O)C(=O)N[C@@H](Cc1c[nH]c2ccccc12)C(=O)N[C@H](C(=O)NCCCCCCC(=O)N[C@@H](CCCCN)C(=O)N[C@@H](CC(C)C)C(=O)N[C@@H](Cc1c[nH]c2ccccc12)C(=O)N[C@@H](CC(N)=O)C(=O)N[C@@H](CC(C)C)C(=O)NCC(=O)N[C@@H](CCCNC(=N)N)C(=O)N[C@H](C(N)=O)C(C)C)C(C)C)[C@@H](C)O)C(C)C)[C@@H](C)O [Compound 16]	0.028	> 50	–	–	–
CC[C@H](C)[C@H](NC(=O)[C@H](CCCNC(=N)N)NC(=O)[C@H](CCCCN)NC(=O)[C@H](CC(C)C)NC(=O)[C@H](CC(N)=O)NC(=O)[C@H](Cc1c[nH]c2ccccc12)NC(=O)[C@H](C)NC(=O)CCCCCNC(=O)[C@@H](NC(=O)[C@H](Cc1c[nH]c2ccccc12)NC(=O)[C@H](CC(=O)O)NC(=O)[C@H](CC(C)C)NC(=O)[C@H](Cc1ccc(O)cc1)NC(=O)[C@H](CCC(=O)O)NC(=O)[C@H](CCC(=O)O)NC(=O)[C@H](Cc1c[nH]c2ccccc12)NC(=O)[C@H](CO)NC(=O)[C@@H](NC(=O)[C@H](Cc1ccccc1)NC(=O)[C@@H](NC(=O)[C@@H](NC(C)=O)[C@@H](C)O)C(C)C)[C@@H](C)O)C(C)C)C(N)=O [Compound 93]	0.016	> 50	–	–	–
